Experimental findings from US20080051429A1, “USE OF 4-AMINO-PIPERIDINES FOR TREATING SLEEP DISORDERS” (priority 2006, published 2008) are described below.

The experiment addresses T1, 5-HT2A receptor (Homo sapiens, UniProt P28223).
T1 construct: expressed in transfected cells; host or cells: NIH3T3 cells, pSI expression vector
The experiment in a line: R-SAT functional receptor assay. The settings on record: for Emax: 120 h. Type of experiment: cell-based. As for the experimental part: The functional receptor assay, Receptor Selection and Amplification Technology (R-SAT), was used (with minor modifications from that previously described U.S. Pat. No. 5,707,798) to screen compounds for efficacy at the 5-HT2A receptor. Briefly, NIH3T3 cells were grown in 96 well tissue culture plates to 70-80% confluence. Cells were transfected for 12-16 hours with plasmid DNAs using superfect (Qiagen Inc.) as per manufacture's protocols. R-SAT's were generally performed with 50 ng/well of receptor and 20 ng/well of Beta-galactosidase plasmid DNA. All receptor and G-protein constructs used were in the pSI mammalian expression vector (Promega Inc) as described in U.S. Pat. No. 5,707,798. The 5HT2A receptor gene was amplified by nested PCR from brain cDNA using the oligodeoxynucleotides based on the published sequence (see Saltzman et. al. Biochem. Biophys. Res. Comm. 181:1469-78 (1991)). Large-scale transfections, cells were transfected for 12-16 hours, then trypsinized and frozen in DMSO. Frozen cells were later thawed, plated at 10,000-40,000 cells per well of a 96 well plate that contained drug. With both methods, cells were then grown in a humidified atmosphere with 5% ambient CO2 for five days. Media was then removed from the plates and marker gene activity was measured by the addition of the beta-galactosidase substrate ONPG (in PBS with 5% NP-40). The resulting colorimetric reaction was measured in a spectrophotometric plate reader (Titertek Inc.)at […]. All data were analyzed using the computer program XLFit (IDBSm). Efficacy is the percent maximal repression compared to repression by a control compound (ritanserin in the case of 5HT2A). pIC50 is the negative of the log(IC50), where IC50 is the calculated concentration in Molar that produces 50% maximal repression.
Briefly, the 5-HT2A receptor, and the alpha subunit of the guanine nucleotide binding protein Gq were transiently transfected into NIH3T3 cells and assayed using the functional receptor assay, Receptor Selection and Amplification Technology (R-SAT) essentially as disclosed in U.S. Pat. No. 5,707,798. Each compound was screened at seven serially diluted concentrations in triplicate. Data were analyzed using least squares fit analysis with GraphPad Prism (San Diego, Calif.), and are reported normalized to percent response.
R-SAT assays (as described in Example 42) were carried out with cells transfected with receptors (listed below) to determine the receptor selectivity profile for compound 26HCH16D. 5HT2A inverse agonist data (IC50 nM; % efficacy) were derived from detailed dose response curves (7 points in triplicate).
The functional receptor assay, Receptor Selection and Amplification Technology (R-SAT), was used (with minor modifications from that previously described U.S. Pat. No. 5,707,798) to screen compounds for efficacy at the 5-HT2A receptor. The RSAT assay was conducted as described herein.
The functional receptor assay, Receptor Selection and Amplification Technology (R-SAT), was used (with minor modifications from that previously described U.S. Pat. No. 5,707,798, which is incorporated herein by reference in its entirety) to screen compounds for efficacy at the 5-HT2A receptor. The RSAT assay was conducted as described herein.

The mark [1] stands for this setting: read-out: Percent Efficacy, compared to ritanserin.
Where [2] appears, read: Table 3, read-out: pIC50 (converted).
[3] abbreviates: compared to ritanserin, read-out: 5HT2A % inhibition.
The mark [4] stands for this setting: Table 6, read-out: 5HT2A pIC50 (converted).
The mark [5] stands for this setting: Table 5, read-out: 5HT2A pIC50 (converted).

Molecules are shown by their SMILES. Where a name gives a salt, the structure may show the parent alone. Read-outs that look alike come from different tables or passages of the source.

T1 sequence (P28223 whole entry): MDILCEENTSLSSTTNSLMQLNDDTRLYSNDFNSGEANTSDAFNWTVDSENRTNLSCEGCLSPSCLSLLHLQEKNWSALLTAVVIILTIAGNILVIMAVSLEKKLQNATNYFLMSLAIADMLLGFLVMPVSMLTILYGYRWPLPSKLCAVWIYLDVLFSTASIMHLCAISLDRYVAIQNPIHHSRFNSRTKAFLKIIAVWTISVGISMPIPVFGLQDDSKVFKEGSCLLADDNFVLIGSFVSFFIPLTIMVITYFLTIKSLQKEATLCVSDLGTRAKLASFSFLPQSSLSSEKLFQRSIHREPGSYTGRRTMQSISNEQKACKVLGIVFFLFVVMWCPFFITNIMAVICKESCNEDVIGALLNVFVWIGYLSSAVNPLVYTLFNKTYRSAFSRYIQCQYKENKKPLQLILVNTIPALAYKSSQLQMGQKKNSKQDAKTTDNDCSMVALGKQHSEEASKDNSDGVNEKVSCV

As to `COc1ccc(CC(=O)N(Cc2ccc(C)c(O)c2)C2CCN(C)CC2)cc1` [Example 57MBT54B, N-((3-hydroxy-4-methylphenyl)methyl)-N-(1-methylpiperidin-4-yl)-2-(4-methoxyphenyl)acetamide], the Emax under setting [1] is 95%. Moreover, the IC50 under setting [2] was 12.6 nM.
On to `Cc1ccc(CC(=O)N(Cc2ccc(C)cc2)C2CCN(C)CC2)cc1` [Example 57MBT62B, N-((4-methylphenyl)methyl)-N-(1-methylpiperidin-4-yl)-2-(4-methylphenyl)ace tamide hydrochloride], for which the Emax (read-out: Percent Efficacy) amounted to 119%. Moreover, the IC50 under setting [2] was 12.6 nM.
On to `Cc1ccc(CN(C(=O)Cc2ccc(Br)cc2)C2CCN(C)CC2)cc1` [Example 57MBT70-1D, N-((4-methylphenyl)methyl)-N-(1-methylpiperidin-4-yl)-2-(4-bromophenyl)acetamide hydrochloride], for which, for the setting “read-out: Percent Efficacy”, the Emax was 120%. Also, the IC50 under setting [2] is 12.6 nM.
For the compound `Cc1ccc(CN(C(=O)Cc2ccc(I)cc2)C2CCN(C)CC2)cc1` [Example 57MBT70-2D, N-((4-methylphenyl)methyl)-N-(1-methylpiperidin-4-yl)-2-(4-iodophenyl)acetamide hydrochloride], the Emax (read-out: Percent Efficacy) was found to be 105%. The IC50 under setting [2] is 6.31 nM.
Take `Cc1ccc(CN(C(=O)Cc2ccc(C(C)C)cc2)C2CCN(C)CC2)cc1` [Example 57MBT70-3D, N-((4-methylphenyl)methyl)-N-(1-methylpiperidin-4-yl)-2-(4-(2-propyl)phenylacetamide hydrochloride]: the Emax under setting [1] stood at 87%. Besides, under “pIC50, Table 3”, the IC50 was 1.26 nM.
`Cc1ccc(CN(C(=O)Cc2ccc(OC(F)(F)F)cc2)C2CCN(C)CC2)cc1` [Example 57MBT70-4D, N-((4-methylphenyl)methyl)-N-(1-methylpiperidin-4-yl)-2-(4-trifluoromethoxyphenyl)acetamide hydrochloride]: the Emax (read-out: Percent Efficacy) came out at 98%. Also, the IC50 under setting [2] was 3.16 nM.
As to `COc1ccc(CC(=O)N(Cc2ccc(C)cc2)C2CCN(C)CC2)cc1C` [Example 57MBT70-8D, N-((4-methylphenyl)methyl)-N-(1-methylpiperidin-4-yl)-2-(4-methoxy-3-methylphenyl)acetamide hydrochloride], the Emax (read-out: Percent Efficacy) amounted to 119%. For the same compound, the IC50 under setting [2] was 20 nM.
With `COc1ccc(CNC(=O)N(Cc2ccc(C)cc2)C2CCN(C(C)(C)C)CC2)cc1` [Example 58AKU-3, N-(4-Methylbenzyl)-N-(1-t-butylpiperidin-4-yl)-N′-(4-methoxybenzyl)carbamide], the Emax under setting [1] was found to be 111%. In addition, under setting [2], the IC50 was 7.94 nM.
For `CCOc1ccc(CC(=O)N(Cc2ccc(C)cc2)C2CCN(C)CC2)cc1` [Example 58AKU-4, 2-(4-Ethoxyphenyl)-N-(4-methylbenzyl)-N-(1-methylpiperidin-4-yl)acetamide] the same measures were 110% and 0.251 nM.
On to `CCCCOc1ccc(CC(=O)N(Cc2ccc(C)cc2)C2CCN(C)CC2)cc1` [Example 58AKU-5, 2-(4-Butoxyphenyl)-N-(4-methylbenzyl)-N-(1-methylpiperidin-4-yl)acetamide], for which the Emax under setting [1] worked out at 99%. Besides, the IC50 under setting [2] was 0.316 nM.
For `Cc1ccc(CN(C(=O)Cc2ccc(OC(C)C)cc2)C2CCN(C)CC2)cc1` [Example 58AKU-6, 2-(4-i-Propoxyphenyl)-N-(4-methylbenzyl)-N-(1-methylpiperidin-4-yl)acetamide], the Emax under setting [1] worked out at 101%. Also, under setting [2], the IC50 is 0.158 nM.
On to `COc1ccc(CC(=O)N(Cc2ccc(C)cc2)C2CCN(Cc3csc(C)n3)CC2)cc1` [Example 63ELH1A, 2-(4-Methoxyphenyl)-N-(4-methylbenzyl)-N-[1-(2-methylthiazol-4-ylmethyl)piperidin-4-yl]acetamide], for which the Emax (read-out: Percent Efficacy) was 104%. This compound also gave an IC50 (pIC50, Table 3) of 5.01 nM.
Consider `CCOc1ccc(CC(=O)N(CCc2ccc(F)cc2)C2CCN(C)CC2)cc1` [Example 63ELH20, 2-(4-ethoxyphenyl)-N-[2-(4-fluorophenyl)ethyl]-N-(1-methylpiperidin-4-yl)acetamide], for which, under setting [1], the Emax is 95%. Moreover, the IC50 under setting [2] was 1 nM.
As to `CCOc1ccc(CC(=O)N(Cc2ccc(F)cc2)C2CCN(C)CC2)cc1` [Example 63ELH21, 2-(4-Ethoxyphenyl)-N-(4-fluorobenzyl)-N-(1-methylpiperidin-4-yl)acetamide], the Emax under setting [1] amounted to 100%. Under setting [2], the IC50 is 3.16 nM.
On to `Cc1ccc(CC2N(Cc3ccc(OC(F)(F)F)cc3)C(=O)OC23CCN(C)CC3)cc1` (stereo not shown) [Example 69NLS21, 8-Methyl-4-(4-methylbenzyl)-3-(4-trifluoromethoxybenzyl)-1-oxa-3,8-diaza-spiro[4.5]decan-2-one, hydrochloride], for which, under setting [3], the Emax turned out to be 83%. Moreover, under setting [4], the IC50 was 0.794 nM.
Regarding `COc1ccc(CN2C(=O)OC3(CCN(C)CC3)C2Cc2ccc(C)cc2)cc1` (stereo not shown) [Example 69NLS35, 3-(4-Methoxybenzyl)-8-methyl-4-(4-methylbenzyl)-1-oxa-3,8-diaza-spiro[4.5]decan-2-one, hydrochloride], the Emax under setting [3] stood at 103%. Further, under setting [4], the IC50 was 0.251 nM.
For the compound `CN1CCC2(CC1)OC(=O)N(Cc1ccc(OCC3CC3)cc1)C2Cc1ccc(F)cc1` (stereo not shown) [Example 69NLS52, 3-(4-Cyclopropylmethoxybenzyl)-4-(4-fluorobenzyl)-8-methyl-1-oxa-3,8-diaza-spiro[4.5]decan-2-one, hydrochloride], the Emax under setting [3] is 87%. Moreover, the IC50 under setting [4] was 0.251 nM.
As to `CC(C)COc1ccc(CN2C(=O)OC3(CCN(CCC4OCCO4)CC3)C2Cc2ccc(F)cc2)cc1` (stereo not shown) [Example 69NLS79-II, 8-(2-[1,3]Dioxolan-2-yl-ethyl)-4-(4-fluorobenzyl)-3-(4-isobutoxybenzyl)-1-oxa-3,8-diaza-spiro[4.5]decan-2-one, hydrochloride], under setting [3], the Emax was 101%. Under setting [4], the IC50 is 7.94 nM.
As to `CC(C)COc1ccc(CN2C(=O)OC3(CCNCC3)C2Cc2ccc(F)cc2)cc1` (stereo not shown) [Example 69NLS81, 4-(4-Fluorobenzyl)-3-(4-isobutoxybenzyl)-1-oxa-3,8-diaza-spiro[4.5]decan-2-one, hydrochloride], under setting [3], the Emax was 85%. In addition, the IC50 under setting [4] is 5.01 nM.
Turning to `CC(C)COc1ccc(CN2C(=O)OC3(CCN(CCCN4CCOCC4)CC3)C2Cc2ccc(F)cc2)cc1` (stereo not shown) [Example 69NLS83, 4-(4-Fluorobenzyl)-3-(4-isobutoxybenzyl)-8-(3-morpholin-4-yl-propyl)-1-oxa-3,8-diaza-spiro[4.5]decan-2-one, dihydrochloride], the Emax under setting [3] was 85%. The IC50 under setting [4] was 10 nM.
For `CC(C)COc1ccc(CN2C(=O)OC3(CCN(C(C)C)CC3)C2Cc2ccc(F)cc2)cc1` (stereo not shown) [Example 69NLS85, 4-(4-Fluorobenzyl)-3-(4-isobutoxybenzyl)-8-isopropyl-1-oxa-3,8-diaza-spiro[4.5]decan-2-one, hydrochloride] the same measures were 95% and 0.794 nM.
Regarding `CC(C)COc1ccc(CC(=O)N(Cc2ccc(F)cc2)C2CCN(CCCN3CCCC3=O)CC2)cc1` [Example 098AF76-65, N-(4-Fluorobenzyl)-2-(4-isobutoxyphenyl)-N-{1-[3-(2-oxo-pyrrolidin-1-yl)propyl]piperidin-4-yl}acetamide, hydrochloride], under “read-out: 5HT2A % INH, compared to ritanserin”, the Emax was found to be 100%. The IC50 under setting [5] was 0.794 nM.
Turning to `CC(C)COc1ccc(CC(=O)N(Cc2ccc(F)cc2)C2CCN(CCCN3CC(C)CC(C)C3)CC2)cc1` (stereo not shown) [Example 103NLS45-B, N-{1-[3-(3,5-Dimethylpiperidin-1-yl)propyl]piperidin-4-yl}-N-(4-fluorobenzyl)-2-(4-isobutoxyphenyl)acetamide, dihydrochloride], the Emax (read-out: 5HT2A % INH) turned out to be 84%. Moreover, the IC50 under setting [5] is 25.1 nM.
